Consider one compound from ChEMBL document CHEMBL3046763 (J Pestic Sci, 2000).

Molecules are shown by their SMILES. Converted amounts (≈) assume the structure as drawn.

The test system of series [1] is Spodoptera litura. Kind of series: Insecticidal activity against Spodoptera litura assessed as mortality at 50 ppm by filter paper method. The class given is functional.
A short description of series [2]: Acute toxicity in po dosed Mus musculus ddY (mouse). Type of series: organism-based. The following applies: in vivo, read-out: LC50 (the source's name).
Series [3] has as its system Delphacodes. As to the kind of experiment: Insecticidal activity against Delphacodes striatellus assessed as mortality at 50 ppm by test tube method. The class given is functional.
For series [4], the system named is Delphacodes. As to the kind of experiment: Insecticidal activity against Delphacodes striatellus assessed as mortality at 10 ppm by test tube method. The class given is functional.
In series [5] the test system is Spodoptera litura. As to the kind of experiment: Insecticidal activity against Spodoptera litura assessed as mortality by filter paper method. Type of series: functional.

As usually defined, the mortality is the share of the test organisms that died. As a reminder, the LC50 is the concentration lethal to half of the exposed cells or organisms. As to `CCOC(=O)CC(SP(=S)(OC)OC)C(=O)OCC` (stereo not given) [MALATHION], the mortality at 50 ppm with Spodoptera litura [1] and in the series with Delphacodes [3] was 100% in each case. The LD50 in series [2] stood at 347 mg/kg. For the same compound, the mortality at 10 ppm in the series with Delphacodes [4] came out at 77%. Also, the 50% lethal concentration (LC50) in the series with Spodoptera litura [5] is 8.3 µg/mL (≈ 25.1 µM).
